Source: PMC9023544, “Ketone-selenoesters as potential anticancer and multidrug resistance modulation agents in 2D and 3D ovarian and breast cancer in vitro models” (Scientific Reports, 2022)

Tested on: ABC superfamily genes in MCF-7/PAX
Test: Expression of genes encoding ABC transporters, qPCR
Assay type: cell-based, human
Method: Based on the fact that compounds K3, K4, K7 sensitized drug-resistant cell lines (HOC/ADR, MCF-7/PAX) and modulated ATPase activity of one from the ABC proteins (P-gp), we verified the potential of these compounds to affect ABC superfamily gene expression. The ovarian and breast cancer cell lines (parental cells and resistant sub-line) were analysed for the expression profile of genes encoding the ABC proteins in the previous works[18]–[20]. […] After 48 h, the effect of compounds alone or in the combination with cytostatics was observed (Supplementary Tables 1, Table 2).
To determine the impact of selected compounds on the expression of genes encoding ABC transporter, HOC/ADR and MCF-7/PAX cells were seeded for 24 h into 5 cm Petri dishes with DMEM medium at the cell density 1 × 10^5 cells/mL. Afterwards, the cells were washed 1× with PBS and new fresh DMEM supplemented with K3, K4, and K7 (in concentration corresponding to their IC10 value) alone or combined with cytostatics (Adriamycin or paclitaxel in concentration corresponding to their IC25 value) was added. In the experiment, positive and negative control was also included (positive—untreated cells, negative—cells treated only with cytostatics). After 48 h exposure, the cells were washed once with PBS and released from the surface by using the above-mentioned trypsin–EDTA procedure. The enzyme reaction was stopped by medium addition and the cells were centrifuged (3200×g; 10 min, 4 °C). The supernatants were removed and before the next centrifugation, the pellets were resuspended in 1.5 mL of cooled PBS (5400×g; 10 min, 4 °C). After the second washing step, the cells were centrifuged another time (10,000×g; 3 min, 4 °C). Subsequently, 1 mL of Trizol (Invitrogen) was added to the pellets and the compounds were stored − 80 °C.
The RNA concentration of selenoester treated samples was determined using QuantiT RiboGreen RNA Assay Kit and Infinite M200 plate reader (Tecan, Männedor, Switzerland). The cDNA was synthesized from 0.5 µg of total RNA by RevertAid First Strand Synthesis cDNA Kit (MBI Fermentas, Vilnius, Lithuania). To determine the quality of cDNA, the ubiquitin C gene fragment was amplified. The experiment was performed in 384-well block by using ViiA7 Real-Time PCR System (Life Technologies, Camarillo, California, United States). A master mix contained 0.25 µL of 20× TaqMan Gene Expression Assay, 1 µL of 5× HotFIREPol Probe qPCR Mix Plus, 1.75 µL of RNase free water and 2 µL of 8× diluted cDNA. The final reaction volume was 5 µL. The PCR parameters were as follows: initial hold (50 °C for 2 min), denaturation (95 °C for 10 min), followed by 45 cycles (denaturation at 95 °C for 15 s, annealing at 60 °C for 1 min). After each cycle, the fluorescent signal was determined. For each compound, duplicates were analysed and those with a standard deviation higher than 0.5 Ct were re-analysed. A quantitate real-time PCR was followed by MIQE guidelines. To compare the relative transcript levels of genes, the software REST 2009 (Qiagen, Hilden, Germany) was used.
Table 2. Effect of selenoesters either on the expression of the ABC gene superfamily in paclitaxel-resistant breast cancer cell line (MCF-7/PAX).
Gene expression of ABC transporters were estimated using comercial predesigned Taqman Gene Expression Assays (Life technologies). TaqMan Gene Expression Assays are based on 5´ nuclease chemistry, and each assay contains the primer and probe set for target of interest. Taqman assays IDs and GenBank Accession numbers of reference sequencies identifying their location and amplicon lengths are included in the Supplementary Table I. * Relative transcript levels (P-value ) in treated and non-treated cancer cell lines were compared using REST 2009 software.

For `CC(=O)C[Se]C(=O)c1ccc(Br)cc1` [K3], the “number of ABC genes with altered expression” value was 30, the “ABCA2 Expression Difference” value (IC10 alone, 48 h) was 0.188 and the “ABCA2 Treated vs. Untr.” value (IC10 alone, 48 h) was “DOWN”. For the same compound, the “ABCA3 Expression Difference” value (IC10 alone, 48 h) was 0.481, the “ABCA3 Treated vs. Untr.” value (IC10 alone, 48 h) was “DOWN” and the “ABCA4 Expression Difference” value (IC10 alone, 48 h) was 27.38. For the same compound, the “ABCA5 Expression Difference” value (IC10 alone, 48 h) was 0.559, the “ABCA5 Treated vs. Untr.” value (IC10 alone, 48 h) was “DOWN” and the “ABCA7 Expression Difference” value (IC10 alone, 48 h) was 0.5100. The “ABCA7 Treated vs. Untr.” value (IC10 alone, 48 h) was “DOWN”, the “ABCA12 Expression Difference” value (IC10 alone, 48 h) was 1.149 and the “ABCB1 Expression Difference” value (IC10 alone, 48 h) was 0.401. The “ABCB1 Treated vs. Untr.” value (IC10 alone, 48 h) was “DOWN”, the “ABCB2 Expression Difference” value (IC10 alone, 48 h) was 0.354 and the “ABCB2 Treated vs. Untr.” value (IC10 alone, 48 h) was “DOWN”. The “ABCB3 Expression Difference” value (IC10 alone, 48 h) was 0.235, the “ABCB3 Treated vs. Untr.” value (IC10 alone, 48 h) was “DOWN” and the “ABCB6 Expression Difference” value (IC10 alone, 48 h) was 0.340. The “ABCB6 Treated vs. Untr.” value (IC10 alone, 48 h) was “DOWN”, the “ABCB7 Expression Difference” value (IC10 alone, 48 h) was 0.143 and the “ABCB7 Treated vs. Untr.” value (IC10 alone, 48 h) was “DOWN”. The “ABCB8 Expression Difference” value (IC10 alone, 48 h) was 0.488, the “ABCB8 Treated vs. Untr.” value (IC10 alone, 48 h) was “DOWN” and the “ABCB9 Expression Difference” value (IC10 alone, 48 h) was 0.422. For the same compound, the “ABCB9 Treated vs. Untr.” value (IC10 alone, 48 h) was “DOWN”, the “ABCB10 Expression Difference” value (IC10 alone, 48 h) was 0.922 and the “ABCB10 Treated vs. Untr.” value (IC10 alone, 48 h) was “DOWN”. For the same compound, the “ABCC1 Expression Difference” value (IC10 alone, 48 h) was 0.272, the “ABCC1 Treated vs. Untr.” value (IC10 alone, 48 h) was “DOWN” and the “ABCC2 Expression Difference” value (IC10 alone, 48 h) was 0.076. For the same compound, the “ABCC2 Treated vs. Untr.” value (IC10 alone, 48 h) was “DOWN”, the “ABCC3 Expression Difference” value (IC10 alone, 48 h) was 15.79 and the “ABCC4 Expression Difference” value (IC10 alone, 48 h) was 0.221. The “ABCC4 Treated vs. Untr.” value (IC10 alone, 48 h) was “DOWN”, the “ABCC5 Expression Difference” value (IC10 alone, 48 h) was 1.010 and the “ABCC6 Expression Difference” value (IC10 alone, 48 h) was 0.958. The “ABCC6 Treated vs. Untr.” value (IC10 alone, 48 h) was “DOWN”, the “ABCC8 Expression Difference” value (IC10 alone, 48 h) was 0.648 and the “ABCC8 Treated vs. Untr.” value (IC10 alone, 48 h) was “DOWN”. The “ABCC10 Expression Difference” value (IC10 alone, 48 h) was 0.171, the “ABCC10 Treated vs. Untr.” value (IC10 alone, 48 h) was “DOWN” and the “ABCD1 Expression Difference” value (IC10 alone, 48 h) was 0.123. For the same compound, the “ABCD1 Treated vs. Untr.” value (IC10 alone, 48 h) was “DOWN”, the “ABCD3 Expression Difference” value (IC10 alone, 48 h) was 0.267 and the “ABCD3 Treated vs. Untr.” value (IC10 alone, 48 h) was “DOWN”. The “ABCD4 Expression Difference” value (IC10 alone, 48 h) was 0.971, the “ABCE1 Expression Difference” value (IC10 alone, 48 h) was 0.552 and the “ABCE1 Treated vs. Untr.” value (IC10 alone, 48 h) was “DOWN”. The “ABCF1 Expression Difference” value (IC10 alone, 48 h) was 2.388, the “ABCF2 Expression Difference” value (IC10 alone, 48 h) was 0.625 and the “ABCF2 Treated vs. Untr.” value (IC10 alone, 48 h) was “DOWN”. For the same compound, the “ABCF3 Expression Difference” value (IC10 alone, 48 h) was 0.487, the “ABCF3 Treated vs. Untr.” value (IC10 alone, 48 h) was “DOWN” and the “ABCG1 Expression Difference” value (IC10 alone, 48 h) was 0.132. The “ABCG1 Treated vs. Untr.” value (IC10 alone, 48 h) was “DOWN”, the “ABCG2 Expression Difference” value (IC10 alone, 48 h) was 0.250 and the “ABCG2 Treated vs. Untr.” value (IC10 alone, 48 h) was “DOWN”. The “ABCG4 Expression Difference” value (IC10 alone, 48 h) was 0.204, the “ABCG4 Treated vs. Untr.” value (IC10 alone, 48 h) was “DOWN” and the “decrease of expression of ABCB1 (P-gp) encoding gene” value (IC10 alone, 48 h) was 60%. For the same compound, the “downregulation of expression of ABCC1 (MRP1)” value (IC10 alone, 48 h) was 73% and the “downregulation of expression of ABCG2” value (IC10 alone, 48 h) was 75%.

`CC(=O)C[Se]C(=O)c1ccccc1C(F)(F)F` [K4] was tested, and the “number of ABC genes with altered expression” value was 31, the “ABCA2 Expression Difference” value (IC10 alone, 48 h) was 0.282 and the “ABCA2 Treated vs. Untr.” value (IC10 alone, 48 h) was “DOWN”. For the same compound, the “ABCA3 Expression Difference” value (IC10 alone, 48 h) was 0.766, the “ABCA3 Treated vs. Untr.” value (IC10 alone, 48 h) was “DOWN” and the “ABCA4 Expression Difference” value (IC10 alone, 48 h) was 40.43. For the same compound, the “ABCA5 Expression Difference” value (IC10 alone, 48 h) was 0.789, the “ABCA5 Treated vs. Untr.” value (IC10 alone, 48 h) was “DOWN” and the “ABCA7 Expression Difference” value (IC10 alone, 48 h) was 0.757. The “ABCA7 Treated vs. Untr.” value (IC10 alone, 48 h) was “DOWN”, the “ABCA12 Expression Difference” value (IC10 alone, 48 h) was 1.702 and the “ABCB1 Expression Difference” value (IC10 alone, 48 h) was 0.568. The “ABCB1 Treated vs. Untr.” value (IC10 alone, 48 h) was “DOWN”, the “ABCB2 Expression Difference” value (IC10 alone, 48 h) was 0.467 and the “ABCB2 Treated vs. Untr.” value (IC10 alone, 48 h) was “DOWN”. For the same compound, the “ABCB3 Expression Difference” value (IC10 alone, 48 h) was 0.323, the “ABCB3 Treated vs. Untr.” value (IC10 alone, 48 h) was “DOWN” and the “ABCB6 Expression Difference” value (IC10 alone, 48 h) was 0.524. For the same compound, the “ABCB6 Treated vs. Untr.” value (IC10 alone, 48 h) was “DOWN”, the “ABCB7 Expression Difference” value (IC10 alone, 48 h) was 0.214 and the “ABCB7 Treated vs. Untr.” value (IC10 alone, 48 h) was “DOWN”. The “ABCB8 Expression Difference” value (IC10 alone, 48 h) was 0.683, the “ABCB8 Treated vs. Untr.” value (IC10 alone, 48 h) was “DOWN” and the “ABCB9 Expression Difference” value (IC10 alone, 48 h) was 0.639. For the same compound, the “ABCB9 Treated vs. Untr.” value (IC10 alone, 48 h) was “DOWN”, the “ABCB10 Expression Difference” value (IC10 alone, 48 h) was 1.163 and the “ABCC1 Expression Difference” value (IC10 alone, 48 h) was 0.398. The “ABCC1 Treated vs. Untr.” value (IC10 alone, 48 h) was “DOWN”, the “ABCC2 Expression Difference” value (IC10 alone, 48 h) was 0.127 and the “ABCC2 Treated vs. Untr.” value (IC10 alone, 48 h) was “DOWN”. For the same compound, the “ABCC3 Expression Difference” value (IC10 alone, 48 h) was 26.21, the “ABCC4 Expression Difference” value (IC10 alone, 48 h) was 0.316 and the “ABCC4 Treated vs. Untr.” value (IC10 alone, 48 h) was “DOWN”. The “ABCC5 Expression Difference” value (IC10 alone, 48 h) was 1.378, the “ABCC6 Expression Difference” value (IC10 alone, 48 h) was 2.041 and the “ABCC8 Expression Difference” value (IC10 alone, 48 h) was 1.590. The “ABCC10 Expression Difference” value (IC10 alone, 48 h) was 0.265, the “ABCC10 Treated vs. Untr.” value (IC10 alone, 48 h) was “DOWN” and the “ABCD1 Expression Difference” value (IC10 alone, 48 h) was 0.179. For the same compound, the “ABCD1 Treated vs. Untr.” value (IC10 alone, 48 h) was “DOWN”, the “ABCD3 Expression Difference” value (IC10 alone, 48 h) was 0.365 and the “ABCD3 Treated vs. Untr.” value (IC10 alone, 48 h) was “DOWN”. For the same compound, the “ABCD4 Expression Difference” value (IC10 alone, 48 h) was 1.288, the “ABCE1 Expression Difference” value (IC10 alone, 48 h) was 0.795 and the “ABCE1 Treated vs. Untr.” value (IC10 alone, 48 h) was “DOWN”. For the same compound, the “ABCF1 Expression Difference” value (IC10 alone, 48 h) was 3.646, the “ABCF2 Expression Difference” value (IC10 alone, 48 h) was 0.942 and the “ABCF3 Expression Difference” value (IC10 alone, 48 h) was 0.753. For the same compound, the “ABCF3 Treated vs. Untr.” value (IC10 alone, 48 h) was “DOWN”, the “ABCG1 Expression Difference” value (IC10 alone, 48 h) was 0.325 and the “ABCG1 Treated vs. Untr.” value (IC10 alone, 48 h) was “DOWN”. For the same compound, the “ABCG2 Expression Difference” value (IC10 alone, 48 h) was 0.378, the “ABCG2 Treated vs. Untr.” value (IC10 alone, 48 h) was “DOWN” and the “ABCG4 Expression Difference” value (IC10 alone, 48 h) was 0.412. The “ABCG4 Treated vs. Untr.” value (IC10 alone, 48 h) was “DOWN”, the “decrease of expression of ABCB1 (P-gp) encoding gene” value (IC10 alone, 48 h) was 43% and the “downregulation of expression of ABCC1 (MRP1)” value (IC10 alone, 48 h) was 60%. The “downregulation of expression of ABCG2” value (IC10 alone, 48 h) was 62%.
